Experimental data published in ChEMBL document CHEMBL5550086, “Drug discovery targeting nicotinamide phosphoribosyltransferase (NAMPT): Updated progress and perspectives” (Bioorg Med Chem, 2024).
Values belong to the compound of their own block, whether it stands above or below them.

Experiments:
[1] = biological target: T1, Nicotinamide phosphoribosyltransferase (Homo sapiens, UniProt P43490); assay: Inhibition of NAMPT (unknown origin)
[2] = test system: HepG2; assay: cells; settings: Homo sapiens, HepG2, 48 h
[3] = biological target: T1, Nicotinamide phosphoribosyltransferase; assay: Activation of recombinant NAMPT (unknown origin) expressed in Escherichia coli by fluorescence based spectrometer analysis
[4] = test system: HCT-116; assay: Anticancer activity against human HCT-116 cells assessed as reduction in cell growth; type: functional, cell-based
[5] = Anticancer activity against human NYH/VM cells assessed as reduction in cell growth; type: functional, cell-based
[6] = test system: PC-3; assay: Anticancer activity against human PC-3 cells; type: functional, cell-based
[7] = biological target: T2, Protein cereblon/Nicotinamide phosphoribosyltransferase (Homo sapiens, UniProt P43490+Q96SW2); assay: PROTAC activity at CRBN/NAMPT in human Jurkat cells assessed as induction of intracellular NAMPT degradation incubated for 24 hrs by Western blot analysis; type: cell-based
Target sequence in this assay (P43490 whole entry): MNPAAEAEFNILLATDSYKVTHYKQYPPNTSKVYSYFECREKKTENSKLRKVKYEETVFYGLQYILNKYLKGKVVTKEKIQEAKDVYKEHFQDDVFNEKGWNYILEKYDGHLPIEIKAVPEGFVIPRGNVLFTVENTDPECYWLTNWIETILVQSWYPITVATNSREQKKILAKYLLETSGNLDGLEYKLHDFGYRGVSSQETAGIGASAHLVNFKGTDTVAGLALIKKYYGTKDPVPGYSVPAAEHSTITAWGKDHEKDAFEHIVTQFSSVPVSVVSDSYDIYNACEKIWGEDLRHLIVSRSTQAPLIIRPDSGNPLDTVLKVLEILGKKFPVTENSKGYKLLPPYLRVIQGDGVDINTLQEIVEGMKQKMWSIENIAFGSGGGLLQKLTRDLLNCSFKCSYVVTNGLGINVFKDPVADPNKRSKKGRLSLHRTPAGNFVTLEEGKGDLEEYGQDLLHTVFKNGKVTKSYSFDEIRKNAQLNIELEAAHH
Target sequence in this assay (Q96SW2 whole entry): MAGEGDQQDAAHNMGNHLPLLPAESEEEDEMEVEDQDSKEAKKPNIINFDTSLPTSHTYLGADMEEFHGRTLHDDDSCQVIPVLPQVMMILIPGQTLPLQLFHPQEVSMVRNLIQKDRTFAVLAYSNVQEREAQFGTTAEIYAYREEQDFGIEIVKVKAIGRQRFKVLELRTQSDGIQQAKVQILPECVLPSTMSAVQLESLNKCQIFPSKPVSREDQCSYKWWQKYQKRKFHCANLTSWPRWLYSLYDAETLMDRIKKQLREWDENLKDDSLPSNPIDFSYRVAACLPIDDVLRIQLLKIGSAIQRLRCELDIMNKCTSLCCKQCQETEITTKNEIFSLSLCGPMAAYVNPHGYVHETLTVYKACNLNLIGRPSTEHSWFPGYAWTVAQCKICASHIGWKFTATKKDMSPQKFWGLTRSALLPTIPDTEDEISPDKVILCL

[8] = biological target: T2, Protein cereblon/Nicotinamide phosphoribosyltransferase; assay: PROTAC activity at CRBN/NAMPT in human Jurkat cells assessed as induction of intracellular NAMPT degradation at 5 uM incubated for 24 hrs by Western blot analysis relative to control; type: cell-based
Target sequence in this assay (P43490 whole entry, looked up): as the sequence (P43490 whole entry) above
Target sequence in this assay (Q96SW2 whole entry, looked up): as the sequence (Q96SW2 whole entry) above

[9] = biological target: Nicotinamide phosphoribosyltransferase (Mus musculus, UniProt Q99KQ4); assay: Activation of N-terminal 6His-tagged mouse NAMPT measured for 20 mins by fluorescence based spectrometer analysis
[10] = biological target: Nicotinamide phosphoribosyltransferase (Mus musculus) (UniProt Q99KQ4); assay: Activation of N-terminal 6His-tagged mouse NAMPT assessed as increase in intracellular NAD+ level measured for 20 mins by fluorescence based spectrometer analysis relative to control; type: cell-based; settings: filed as activator
[11] = test system: A2780; assay: cells; settings: Homo sapiens, A2780, 72 h
[12] = biological target: T1, Nicotinamide phosphoribosyltransferase; assay: Activation of N-terminal His-tagged human NAMPT expressed in Escherichia coli BL 21 (DE3) using NAM and PRPP as substrates incubated for 15 mins in presence of ATP by fluorescence based spectrometer analysis
[13] = biological target: Cytochrome P450 2C9 (Homo sapiens, UniProt P11712); assay: Inhibition of CYP2C9 (unknown origin); type: ADME
Sequence of Cytochrome P450 2C9 (P11712 whole entry): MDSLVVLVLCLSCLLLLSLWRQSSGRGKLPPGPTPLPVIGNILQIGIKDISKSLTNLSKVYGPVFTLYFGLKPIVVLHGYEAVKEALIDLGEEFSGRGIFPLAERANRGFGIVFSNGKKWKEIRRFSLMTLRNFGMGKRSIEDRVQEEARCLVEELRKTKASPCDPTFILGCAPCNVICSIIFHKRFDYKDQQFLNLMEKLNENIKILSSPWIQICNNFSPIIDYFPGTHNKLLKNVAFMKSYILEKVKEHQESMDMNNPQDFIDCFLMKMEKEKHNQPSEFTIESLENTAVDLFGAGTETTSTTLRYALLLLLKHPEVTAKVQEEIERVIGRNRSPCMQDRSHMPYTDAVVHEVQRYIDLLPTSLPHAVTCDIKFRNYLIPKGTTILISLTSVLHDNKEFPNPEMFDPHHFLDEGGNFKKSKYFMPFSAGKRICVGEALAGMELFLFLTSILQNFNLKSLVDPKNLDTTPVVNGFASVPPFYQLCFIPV

T1 sequence (P43490 whole entry): as the sequence (P43490 whole entry) above
Sequence of Nicotinamide phosphoribosyltransferase (Mus musculus, UniProt Q99KQ4) (Q99KQ4 whole entry): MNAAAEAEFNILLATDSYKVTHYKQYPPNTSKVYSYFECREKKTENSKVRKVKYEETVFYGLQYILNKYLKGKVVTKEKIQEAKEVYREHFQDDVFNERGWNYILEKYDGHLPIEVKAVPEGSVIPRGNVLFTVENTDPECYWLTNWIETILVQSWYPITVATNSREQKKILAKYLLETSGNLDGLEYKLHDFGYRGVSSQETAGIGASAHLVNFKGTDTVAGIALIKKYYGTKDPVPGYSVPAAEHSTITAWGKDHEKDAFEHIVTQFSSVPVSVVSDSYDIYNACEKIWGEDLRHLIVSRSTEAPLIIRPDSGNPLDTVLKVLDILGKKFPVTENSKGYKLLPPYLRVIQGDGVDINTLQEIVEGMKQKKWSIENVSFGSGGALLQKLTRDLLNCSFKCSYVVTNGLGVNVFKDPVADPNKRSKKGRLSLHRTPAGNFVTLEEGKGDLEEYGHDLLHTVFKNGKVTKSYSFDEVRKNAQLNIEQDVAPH
Sequence of Nicotinamide phosphoribosyltransferase (Mus musculus) (Q99KQ4 whole entry, looked up): as the sequence (Q99KQ4 whole entry) above

IC50 [1]: 120 nM
Structure (SMILES): Nc1ccc(/C=C/C(=O)NCc2cc3cc(-c4ccc(C(=O)N5CCC(F)(F)CC5)cc4)cc(-c4ccc(F)cc4)c3o2)cn1 [PADNARSERTIB]

IC50 [2]: 1690 nM
Structure (SMILES): Cc1nc2ccccc2n(Cc2ccc(C(=O)NCc3cccnc3)cc2)c1=O

IC50 [2]: 1950 nM
Structure (SMILES): CCCn1c(=O)c(-c2ccc(C(=O)NCc3cccnc3)cc2)nc2ccccc21

EC50 [3]: 3500 nM
Structure (SMILES): O=C1C=C2Cc3cc(O)c(O)cc3C(c3ccccc3O)=C2C=C1O

IC50 [4]: 0.4 nM
IC50 [6]: 0.3 nM
Structure (SMILES): N#C/N=C(\NCCCCCCC(=O)N(Cc1ccccc1)OC1CCCCC1)Nc1ccncc1
IC50 [5]: 0.02 nM

DC50 [7]: < 1 nM
Emax [8]: 93.3%
Structure (SMILES): O=C(/C=C/c1cccnc1)NCCCCC1CCN(C(=O)c2ccc(N3CCN(CCCCCC#Cc4cccc5c4CN(C4CCC(=O)NC4=O)C5=O)CC3)cc2)CC1 (stereo unspecified)

EC50 [9]: 1490 nM
Emax [10]: 247%
Structure (SMILES): O=C(NCc1ccc(CO)cc1)Nc1ccc(S(=O)(=O)N2CC3CCC(C2)O3)cc1

IC50 [11]: 360 nM
Structure (SMILES): O=S(=O)(c1ccc(CNc2ccc3cccn3c2)cc1)c1cc(F)cc(F)c1

EC50 [12]: 180 nM
Structure (SMILES): CCN(CC)C(=O)c1noc2cc(NC(=O)NCc3cnco3)ccc12

IC50 [13]: > 20000 nM
Structure (SMILES): O=C(NC[C@@H]1CCOC1)c1ccc(NC(=O)N2Cc3ccccc3C2)cc1

DC50 [7]: < 1 nM
Emax [8]: 92.5%
Structure (SMILES): O=C(/C=C/c1cccnc1)NCCCCC1CCN(C(=O)c2ccc(N3CCN(CCCCCCC#Cc4cccc5c4CN(C4CCC(=O)NC4=O)C5=O)CC3)cc2)CC1 (stereo unspecified)
